# Patent publication US9359196B2, “Antiproliferative compositions comprising curcumin analogs and methods of producing and using same” (The Board of Regents of the University of Oklahoma, priority 2009, dated 2016)
# Key:
# Type in all cases: cell-based, human
# H441 cells [1] = experiment: Illumina microarray gene expression analysis of H441 cells; conditions: H441, 1 μM, 12 hours
# Protocol: RNA Extraction and microarray sample processing: H441 cells were seeded in […] tissue culture plates at a density of 1×10^6 cells per well. The cells were allowed to attach and grow overnight and then treated with CLEFMA (n=5) at 1 μM in culture medium supplemented with 5% FBS. The DMSO concentration was maintained at 0.1% per well. Control wells (n=5) received equivalent volumes of DMSO without any test compound. The cells were kept in the treatment medium for 12 hours, after which the cells were washed twice with ice-cold Dulbecco's phosphate buffered saline (PBS). The total RNA was extracted using the RNAeasy kit (Qiagen, CA) as per the manufacturer's instructions. The quality of RNA was ascertained by the Nanodrop 2000 spectrophotometer (NanoDrop products, Wilmington, Del.).
# The expression of >48,000 genes were compared using Illumina Human WG-6 v3 arrays. Hybridization to Illumina microarrays was performed at the Oklahoma Medical Research Foundation (Oklahoma City, USA). RNA (250 ng) from each sample was labeled using the Illumina Total Prep RNA Amplification Kit following the manufacturer's directions (Ambion, Austin, Tex.). Briefly, cDNA was reverse transcribed from RNA after priming with T7-oligo-dT, and cRNA was synthesized from the T7 promoter while incorporating biotinylated UTP. The cRNA was then hybridized overnight to Illumina BeadChips, and the microarray chips were washed with high stringency and labeled with streptavidin-Cy3 (Amersham Biosciences; Piscataway, N.J.) prior to scanning on an Illumina BeadArray Reader.
# Microarray Data Analysis: The Illumina WG-6_v3 array data for each experimental condition were exported from the BeadStudio Software for further analysis. The data were normalized as described previously [Dozmorov et al., 2004; Dozmorov et al., 2009] using the variability of low-expressing genes as a reference point. In order to find genes expressed above the level of technical noise, a frequency histogram of raw expression values was examined for each array. The histogram yielded a right-skewed unimodal distribution curve with a mode of approximately 75. A normal distribution curve representing the variability of the data around zero was then fitted around the mode, mirroring the Gaussian profile of the left part of the histogram. Its parameters were then defined (mean and standard deviation (SD)) and the data were normalized to the standard deviation of the noise after subtraction of the mean. […] The data were then filtered to remove genes with an expression value less than 3.0. This is equivalent to setting a threshold at 3 SD above the noise level. The genes that expressed below the noise level under all experimental conditions (approximately 1,600) were excluded from consideration, as their expression could not be reliably assessed. Full microarray data were deposited in the Gene Expression Omnibus (GEO, GSE23420) and are accessible on the GEO web site.
# To identify differentially expressed genes between two experimental groups, the associative analysis as described elsewhere [Dozmorov et al., 2009] was used. Briefly, a reference group of genes expressed above background with low variability of expression in pooled microarray datasets was identified by an F-test. […] For the genes with statistically significant variability above the random, the variations were assumed to have biological reasons. An associative t-test was applied to investigate if a given gene belongs to a certain group. […]
# H441 cells [2] = experiment: MitoSOX Red mitochondrial superoxide imaging / flow cytometry; conditions: 0-20 μM, 12-48 h
# Protocol: MitoSOX Red mitochondrial superoxide imaging: Cells were grown to 70% confluency in 24-well tissue culture plates and treated with CLEFMA (0-20 μM) for 12-48 h; treatment with hydrogen peroxide (H2O2, 10 μM) served as a positive control. At the end of the incubation period, both the non-adherent and adherent cells were incubated with 5 μM MitoSOX Red solution (Invitrogen, Carlsbad, Calif.) for 30 min at 37° C. For flow cytometric analysis, the MitoSOX-loaded cells were trypsinized and collected in HBSS (with Ca/Mg) containing 1% BSA and suspended at a density of 1−2×10^7 cells/ml. Approximately 5-10 million cells were aliquoted into a binding buffer and run through an automated dual-laser-excited FACS Calibur (Flow and Imaging Core Facility, OUHSC, Oklahoma City) measuring at 488 nm excitation wavelength. The data were collected at the FSC, FL2 and FL3 channels for at least 10,000 events, and the histogram and dot-plot charts were obtained and analyzed using Summit V4.3 software (Dako Colorado Inc, Carpinteria, Calif.). For microscopy, the MitoSOX-loaded cells were counterstained with 1 μg/ml Hoechst 33342 dye (Molecular Probes, Carlsbad, Calif.). […]
# H441 cells [3] = experiment: GSH/GSSG assay in H441 cells; conditions: 12 and 24 h
# Protocol: Glutathione-to-glutathione disulfide (GSH/GSSG) assay: In order to assess the effect of CLEFMA on cellular GSH levels, a kit from Oxford Biomedical Research (Oxford, Mich.) was used and followed a modification of the method reported elsewhere (NCL Method GTA-3, Nanotechnology Characterization Lab, Frederick, Md.). H441 were seeded in a 12-well plate (1 million cells/well) and treated with CLEFMA for 12 and 24 h. The medium was removed and the cell layer was washed twice with ice-cold PBS. After adding 100 μl of ice-cold 5% m-phosphoric acid, the cells were scraped into a microfuge tube and centrifuged at 1000×g at 4° C. for 10 min. The supernatant was removed to a fresh tube for the GSSG and GSH assays. For the GSSG determination, approximately 30 μl supernatant was mixed with 20 μl thiol scavenger and 130 μl ice-cold assay buffer, and for the GSH assay, approximately 5 μl of the supernatant was diluted in 180 μl with ice-cold assay buffer. […] The plate was read in a microplate reader at 405-414 nm at 0 and 10 min after DTNB was added. The GSH and GSSG concentrations were determined following a linear regression analysis and normalized to total protein. The ratio (GSH−2GSSG)/GSSG was calculated and expressed as the percent of untreated control cells.
compound,measurement,setting,value
"O=C(O)C=CC(=O)N1CC(=Cc2ccccc2Cl)C(=O)C(=Cc2ccccc2Cl)C1 [Compound 29, 4-[3,5-Bis-(2-chlorobenzylidene)-4-oxo-piperidin-1-yl]-4-oxo-2-butenoic acid]",GAPDH expression increase,H441 cells [1],1.3 fold
same,HMOX1 expression increase,H441 cells [1],5.3 fold
same,SOD1 expression increase,H441 cells [1],1.3 fold
same,SULTA1 expression increase,H441 cells [1],3.8 fold
same,SULTA2 expression increase,H441 cells [1],8.5 fold
same,mitochondrial ROS production (MitoSOX),H441 cells [2],time- and dose dependent increase in mitochondrial ROS production
same,GSH/GSSG ratio,H441 cells [3],strong dose-dependent reduction of the GSH/GSSG ratio
